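96-well plates; 48 h exposure; 5 concentrations. Endpoints by linear interpolation between flanking doses. Not reached: highest tested concentration assigned. At the GI50, growth is halved.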 Active and inactive are the calls of the source. No stated cut-off is given here; in the data, active = GI50 up to about 1.1 µM and inactive = higher.
Assays:
Experiment in all cases: growth of human tumour cells (NCI), 48 h
[1] = system: OVCAR-3
[2] = system: HCT-15
[3] = system: U-251
[4] = system: TK-10
[5] = system: CCRF-CEM
[6] = system: IGROV-1
[7] = system: OVCAR-8
[8] = system: OVCAR-4
[9] = system: LOX IMVI
[10] = system: A549
[11] = system: Malme-3M
[12] = system: SW-620
[13] = system: T47D
[14] = system: HCT-116
[15] = system: M14
[16] = system: HOP-62
[17] = system: SNB-19
[18] = system: SNB-75
[19] = system: NCI-H226
[20] = system: SN12C
[21] = system: KM12
[22] = system: SF-295
[23] = system: UACC-62
[24] = system: HL-60
[25] = system: UO-31
[26] = system: MCF7
[27] = system: SF-539
[28] = system: A498
[29] = system: K562
[30] = system: NCI-H522
[31] = system: PC-3
[32] = system: HOP-92
[33] = system: UACC-257
[34] = system: DU-145
[35] = system: SK-MEL-2
[36] = system: NCI/ADR-RES
[37] = system: EKVX
[38] = system: RXF 393
[39] = system: HCC 2998
[40] = system: MDA-MB-231
[41] = system: CAKI-1
[42] = system: Hs-578T
[43] = system: SK-MEL-28
[44] = system: SK-MEL-5
[45] = system: HT-29
[46] = system: ACHN
[47] = system: MDA-N
[48] = system: OVCAR-5
[49] = system: SK-OV-3
[50] = system: COLO 205
[51] = system: MOLT-4
[52] = system: MDA-MB-435
[53] = system: SR
[54] = system: SF-268
[55] = system: 786-0
[56] = system: BT-549
[57] = system: NCI-H23
[58] = system: RPMI-8226
[59] = system: NCI-H460

With `Cc1cccc2c(N)c3cccc(C(=O)NCC[N+](C)(C)Cc4sccc4[N+](=O)[O-])c3nc12` the GI50 [1] was 19.5 µM (inactive), the GI50 [2] was 6.18 µM and the GI50 [3] was 6.47 µM (inactive). The GI50 [4] was 25.9 µM (inactive), the GI50 [5] was > 100 µM (inactive) and the GI50 [6] was 2.71 µM (inactive). The GI50 [7] was 9.84 µM (inactive), the GI50 [8] was 12.3 µM (inactive) and the GI50 [9] was 13.5 µM (inactive). The GI50 [10] was 0.491 µM (active), the GI50 [11] was 10.4 µM (inactive) and the GI50 [12] was 5.86 µM (inactive). The GI50 [13] was 36.6 µM (inactive), the GI50 [14] was 12.1 µM (inactive) and the GI50 [15] was 13.8 µM (inactive). For the same molecule, the GI50 [16] was 2.6 µM (inactive), the GI50 [17] was 6.59 µM (inactive) and the GI50 [18] was 7.28 µM (inactive). The GI50 [19] was 6.18 µM (inactive), the GI50 [20] was 0.332 µM (active) and the GI50 [21] was 9.68 µM (inactive). For the same molecule, the GI50 [22] was 2.64 µM (inactive), the GI50 [23] was 13.6 µM (inactive) and the GI50 [24] was > 100 µM (inactive). The GI50 [25] was 20.5 µM (inactive), the GI50 [26] was 2.04 µM (inactive) and the GI50 [27] was 2.83 µM (inactive). For the same molecule, the GI50 [28] was 27 µM (inactive), the GI50 [29] was 3.64 µM (inactive) and the GI50 [30] was 2.64 µM (inactive). The GI50 [31] was 11.9 µM (inactive), the GI50 [32] was 34.5 µM (inactive) and the GI50 [33] was 26.9 µM (inactive). For the same molecule, the GI50 [34] was 23.8 µM (inactive), the GI50 [35] was 72.9 µM (inactive) and the GI50 [36] was 51.4 µM (inactive). For the same molecule, the GI50 [37] was 18.6 µM (inactive), the GI50 [38] was 12.9 µM (inactive) and the GI50 [39] was 7.69 µM (inactive). The GI50 [40] was 12 µM (inactive), the GI50 [41] was 2.55 µM (inactive) and the GI50 [42] was 1.11 µM (active). For the same molecule, the GI50 [43] was 37.3 µM (inactive), the GI50 [44] was 5.21 µM (inactive) and the GI50 [45] was 3.21 µM (inactive). For the same molecule, the GI50 [46] was 3.78 µM (inactive), the GI50 [47] was 19.6 µM (inactive) and the GI50 [48] was 5.37 µM (inactive). For the same molecule, the GI50 [49] was 10.8 µM (inactive), the GI50 [50] was 13.3 µM (inactive) and the GI50 [51] was 0.871 µM (active). For the same molecule, the GI50 [52] was 40.6 µM (inactive), the GI50 [53] was 0.398 µM (active) and the GI50 [54] was 19 µM (inactive). The GI50 [55] was 5.56 µM (inactive), the GI50 [56] was 22 µM (inactive) and the GI50 [57] was 3.94 µM (inactive).
With `COc1ccc2c(c1)CCc1cc(OC)ccc1/[N+]([O-])=[N+]\2[O-]` the GI50 [1] was 16.6 µM (inactive), the GI50 [2] was 15.6 µM and the GI50 [3] was 17.6 µM (inactive). The GI50 [4] was 22.4 µM (inactive), the GI50 [5] was 1.92 µM (inactive) and the GI50 [6] was 12.1 µM (inactive). The GI50 [7] was 10.4 µM (inactive), the GI50 [58] was 4.86 µM (inactive) and the GI50 [59] was 19.1 µM (inactive). The GI50 [9] was 15 µM (inactive), the GI50 [10] was 26.4 µM (inactive) and the GI50 [11] was 19.5 µM (inactive). The GI50 [12] was 7.1 µM (inactive), the GI50 [13] was 17 µM (inactive) and the GI50 [14] was 12.4 µM (inactive). For the same molecule, the GI50 [15] was 23 µM (inactive), the GI50 [16] was 21.6 µM (inactive) and the GI50 [17] was 21.6 µM (inactive). For the same molecule, the GI50 [18] was 17.9 µM (inactive), the GI50 [20] was 16.2 µM (inactive) and the GI50 [21] was 20.2 µM (inactive). For the same molecule, the GI50 [22] was 19.9 µM (inactive), the GI50 [23] was 15.8 µM (inactive) and the GI50 [24] was 6.11 µM (inactive). The GI50 [25] was 9.08 µM (inactive), the GI50 [26] was 9.29 µM (inactive) and the GI50 [27] was 21.2 µM (inactive). The GI50 [28] was 16.2 µM (inactive), the GI50 [29] was 8.91 µM (inactive) and the GI50 [30] was 5.93 µM (inactive). For the same molecule, the GI50 [31] was 14.8 µM (inactive), the GI50 [32] was 13.2 µM (inactive) and the GI50 [33] was 18.3 µM (inactive). For the same molecule, the GI50 [34] was 18.1 µM (inactive), the GI50 [35] was 20.9 µM (inactive) and the GI50 [36] was 24.9 µM (inactive). For the same molecule, the GI50 [37] was 20.8 µM (inactive), the GI50 [38] was 2.86 µM (inactive) and the GI50 [39] was 30.1 µM (inactive). For the same molecule, the GI50 [40] was 18.7 µM (inactive), the GI50 [41] was 17.6 µM (inactive) and the GI50 [42] was 25.1 µM (inactive). The GI50 [43] was 18.7 µM (inactive), the GI50 [44] was 16.3 µM (inactive) and the GI50 [45] was 19.6 µM (inactive). For the same molecule, the GI50 [46] was 10.8 µM (inactive), the GI50 [47] was 14.3 µM (inactive) and the GI50 [48] was 23.2 µM (inactive). For the same molecule, the GI50 [49] was 18.7 µM (inactive), the GI50 [50] was 14.5 µM (inactive) and the GI50 [51] was 3.67 µM (inactive). The GI50 [52] was 16.3 µM (inactive), the GI50 [53] was 3.28 µM (inactive) and the GI50 [54] was 16.7 µM (inactive). For the same molecule, the GI50 [55] was 6.27 µM (inactive), the GI50 [56] was 14.8 µM (inactive) and the GI50 [57] was 23.1 µM (inactive).
`Cc1ccc(C2=Nc3c(N)nc(N)nc3NC(c3ccccc3)C2)cc1` (centres undefined) was tested, and the GI50 [1] was 11.8 µM (inactive), the GI50 [2] was 4.92 µM and the GI50 [3] was 12.1 µM (inactive). The GI50 [4] was 14.4 µM (inactive), the GI50 [5] was 7.41 µM (inactive) and the GI50 [6] was 7.16 µM (inactive). The GI50 [7] was 14 µM (inactive), the GI50 [58] was 7.01 µM (inactive) and the GI50 [59] was 12.4 µM (inactive). The GI50 [8] was 13.9 µM (inactive), the GI50 [9] was 11 µM (inactive) and the GI50 [10] was 10.9 µM (inactive). The GI50 [11] was 10.9 µM (inactive), the GI50 [12] was 4.16 µM (inactive) and the GI50 [13] was 12.6 µM (inactive). The GI50 [14] was 5.53 µM (inactive), the GI50 [15] was 8.26 µM (inactive) and the GI50 [16] was 12.5 µM (inactive). The GI50 [17] was 13.4 µM (inactive), the GI50 [18] was 15.2 µM (inactive) and the GI50 [19] was 14.3 µM (inactive). For the same molecule, the GI50 [20] was 11.4 µM (inactive), the GI50 [23] was 10.3 µM (inactive) and the GI50 [24] was 3.08 µM (inactive). The GI50 [25] was 12.6 µM (inactive), the GI50 [26] was 7.69 µM (inactive) and the GI50 [27] was 12.1 µM (inactive). The GI50 [28] was 11.4 µM (inactive), the GI50 [29] was 4.06 µM (inactive) and the GI50 [30] was 3.65 µM (inactive). For the same molecule, the GI50 [31] was 10.5 µM (inactive), the GI50 [32] was 10.3 µM (inactive) and the GI50 [33] was 12.2 µM (inactive). For the same molecule, the GI50 [34] was 14.8 µM (inactive), the GI50 [36] was 4.34 µM (inactive) and the GI50 [37] was 13.5 µM (inactive). The GI50 [38] was 9.4 µM (inactive), the GI50 [39] was 7.41 µM (inactive) and the GI50 [40] was 7.4 µM (inactive). The GI50 [41] was 10.5 µM (inactive), the GI50 [42] was 13 µM (inactive) and the GI50 [43] was 12 µM (inactive). For the same molecule, the GI50 [44] was 10 µM (inactive), the GI50 [45] was 3.99 µM (inactive) and the GI50 [46] was 15.1 µM (inactive). The GI50 [47] was 2.22 µM (inactive), the GI50 [48] was 16.4 µM (inactive) and the GI50 [49] was 13.9 µM (inactive). For the same molecule, the GI50 [51] was 5.14 µM (inactive), the GI50 [52] was 2.24 µM (inactive) and the GI50 [53] was 6.92 µM (inactive). For the same molecule, the GI50 [54] was 14.9 µM (inactive), the GI50 [55] was 12 µM (inactive) and the GI50 [56] was 9.46 µM (inactive). The GI50 [57] was 11.3 µM (inactive).
